Peptide text beside a SMILES is read from it.
Key:
injured brain [1] = details: mouse, in vivo, iv; cited from earlier work
Text: We have previously identified a tetrapeptide, CAQK, that accumulates in the ECM of the injured brain. […] We reasoned that knowing the target molecule CAQK binds to would likely give hints of the possible nature of such an activity. Previous work has shown that CAQK binds to a chondroitin sulfate proteoglycan (CSPG)-rich protein complex, the expression of which is elevated following an inju ... || Given the CAQK accumulation in the injured brain and binding to TnC in injured ECM, and the functional activities observed with other homing peptides, it seemed possible that CAQK might affect the course of TBI. To prepare for functional testing of CAQK, we performed CAQK half-life analyses using a mouse model of CCI. […] Initial clearance from the circulation through glomerular filtration is expected for a small peptide, explaining the short half-life. A small per ...

injured brain [2] = details: mouse, in vivo
Procedure: (§1) Figure 2 Pharmacokinetic analysis of CAQK. (A) Mice with CCI received i.v. bolus of CAQK (12.5 mg/kg) at 4 h after CCI. Blood was collected at different time points, and plasma was analyzed by LC/MS. Plasma concentration of CAQK was plotted using WinNonlin. N = 3 per time point. (B) Plasma clearance data were used to calculate pharmacokinetic parameters using a two-compartment analysis. (C) CAQK accumulation was analyzed in brain homogenates from injured (ipsilateral) and uninjured (contralateral) sides at different time points after i.v. injection and plotted as ng/g of brain tissue. N = 3/group. Data were expressed as mean ± SEM. Differences were analyzed using an unpaired t-test. […] vs contralateral side. […] It is not in the table of panel B, so it is not attached as a condition.
CAQK (12.5 mg/kg) was injected i.v. into mice with CCI at 4 h post-injury. Blood was collected from these mice at different time points, and plasma was processed and analyzed by LC/MS after a reduction and alkylation step under reducing conditions to capture total peptide (free peptide and peptide bound to plasma proteins by disulfide formation). Plasma concentration was plotted using WinNonlin. […] Blood was collected at different time points at Day 1 and Day, 7 and plasma was analyzed by LC/MS to analyze CAQK. […]

[3] = CAQK plasma clearance in rats; format: in vivo, rat
Procedure: Figure EV2 CAQK plasma clearance in rats. (A) CAQK was injected daily i.v. in healthy adult Sprague-Dawley rats at a 10 mg/kg dose for 7 days. Blood was collected at different time points at Day 1 and Day 7, and plasma was analyzed by LC/MS to analyze CAQK. Plasma concentration of CAQK was plotted. N = 3 per time point. Plasma clearance data were also used to calculate pharmacokinetic parameters in (B). (C) FP measurement of CAQK binding to BSA. FAM-CAQK (20 nM) was incubated with BSA at the indicated concentration for 1 h at 37 °C. n = 3.
(§2) CAQK (12.5 mg/kg) was injected i.v. into mice with CCI at 4 h post-injury. Blood was collected from these mice at different time points, and plasma was processed and analyzed by LC/MS after a reduction and alkylation step under reducing conditions to capture total peptide (free peptide and peptide bound to plasma proteins by disulfide formation). Plasma concentration was plotted using WinNonlin. Similarly, for analysis in rats, CAQK (10 mg/kg) was injected i.v. into healthy Sprague-Dawley rats once daily for 7 days. Blood was collected at different time points at Day 1 and Day, 7 and plasma was analyzed by LC/MS to analyze CAQK. Plasma concentration of CAQK was plotted. N = 3 per time point.

in vivo = details: mouse, iv, 12.5 mg/kg
Procedure: as §1, §2

Safety study in CCI mice = format: in vivo, mouse; details: for ALP / ALT / BUN / GGT / TBIL: CCI mice, blood after two weeks, n = 5; for ALP / ALT / BUN: mean ± SD
Procedure: Male C57BL/6 mice (n = 5 per group) with CCI injury were intravenously administered daily with control PBS or with various concentrations (1, 5, and 25 mg/kg) of the CAQK peptide. After 2 weeks, blood was collected from the mice and analyzed for liver and kidney toxicity. Tests performed for liver function (ALP: alkaline phosphatase, ALT: alanine aminotransferase, TBIL total bilirubin, GGT G-glutamyl transferase) and kidney function (BUN: blood urea nitrogen). Results expressed as mean ± SD. For a more detailed safety analysis, Sprague-Dawley rats were randomized to four dose groups. CAQK or vehicle (0.9% sodium chloride injection, USP) was administered once daily by i.v. administration to male and female rats at 0 (vehicle),10, 100, or 300 mg/kg/day (Groups 1–4, respectively) for 7 consecutive days. All animals were euthanized and necropsied after blood sample collection for clinical pathology on Day 8. All animals in Groups 1–4 were evaluated for clinical observations, body weights, and clinical pathology (hematology, coagulation, and serum chemistry), gross necropsy observations and major organ weights. […]
Appendix Table S2. Safety study in CCI mice. C57BL/6 mice (n = 5 per group) with CCI injury were intravenously injecteddaily for 7 days with vehicle control (PBS)or with the shown concentration of the CAQK peptide. After two weeks, blood was collected from the mice and analyzed for liver and kidney toxicity. Tests performed for liver function:ALP:
Alkaline Phosphatase, ALT: Alanine Aminotransferase, TBIL-total bilirubin, GGT -G-glutamyl transferase,and for kidney function:BUN: Blood urea nitrogen. Results

Compound: C[C@H](NC(=O)[C@@H](N)CS)C(=O)N[C@@H](CCC(N)=O)C(=O)N[C@@H](CCCCN)C(N)=O [CAQK, cysteine-alanine-glutamine-lysine] (H-CAQK-NH2)
- accumulation in other organs (injured brain [1]): No other organs showed peptide accumulation except the kidneys
- estimated half-life in the brain (injured brain [2]): about 5.8 h
- accumulation in the injured side of the brain versus the contralateral side (injured brain [2]; iv): over eightfold
- half-life after single injection versus daily injections over a week ([3]; healthy Sprague-Dawley rats, 10 mg/kg i.v. daily for 7 days, Day 1 and Day 7): remained the same
- pK profile after 7-day repeat dosing ([3]; repeat IV dosing, 7 days): unaltered
- AUC(0-inf) (in vivo): 27800 ng·h/mL
- AUC(0-t) (in vivo): 27400 ng·h/mL
- C0 (in vivo): 45100 ng/mL
- CL2 (in vivo): 13 mL/min/kg
- MRT (in vivo): 4.2 h
- T1/2, initial rapid clearance from the blood (in vivo): 9 min
- T1/2, second elimination phase (in vivo): 4.1 h
- V1 (in vivo): 0.28 L/kg
- V2 (in vivo): 1.6 L/kg
- Vd (in vivo): 1.9 L/kg
- clearance (in vivo): 7.5 mL/min/kg
- half-life (in vivo): 4.2 h
- k10 (in vivo): 1.6 h⁻¹
- k12 (in vivo): 2.8 h⁻¹
- k21 (in vivo): 0.48 h⁻¹
- t1/2Alpha (in vivo): 9 min
- ALP (Safety study in CCI mice; 1 mg/kg i.v. daily for 7 days): 45 ± 5.3 U/L
- ALT (Safety study in CCI mice; 1 mg/kg i.v. daily for 7 days): 24.3 ± 6.8 U/L
- BUN (Safety study in CCI mice; 1 mg/kg i.v. daily for 7 days): 21.3 ± 3.5 mg /bL
- GGT (Safety study in CCI mice; 1 mg/kg i.v. daily for 7 days): < 5 U/L
- TBIL (Safety study in CCI mice; 1 mg/kg i.v. daily for 7 days): 0.3 mg/dL
- ALP (Safety study in CCI mice; 5 mg/kg i.v. daily for 7 days): 47.4 ± 8.2 U/L
- ALT (Safety study in CCI mice; 5 mg/kg i.v. daily for 7 days): 23.4 ± 4.9 U/L
- BUN (Safety study in CCI mice; 5 mg/kg i.v. daily for 7 days): 22.2 ± 1 mg /bL
- GGT (Safety study in CCI mice; 5 mg/kg i.v. daily for 7 days): < 5 U/L
- TBIL (Safety study in CCI mice; 5 mg/kg i.v. daily for 7 days): 0.3 mg/dL
- ALP (Safety study in CCI mice; 25 mg/kg i.v. daily for 7 days): 42.6 ± 7.6 U/L
- ALT (Safety study in CCI mice; 25 mg/kg i.v. daily for 7 days): 34.8 ± 13.2 U/L
- BUN (Safety study in CCI mice; 25 mg/kg i.v. daily for 7 days): 24.8 ± 2.05 mg /bL
- GGT (Safety study in CCI mice; 25 mg/kg i.v. daily for 7 days): < 5 U/L
- TBIL (Safety study in CCI mice; 25 mg/kg i.v. daily for 7 days): 0.3 mg/dL
- effects on body weight, organ weight, or clinical pathology (Safety study in CCI mice; TBI mice, daily i.v. doses (1, 5, and 25 mg/kg)): no effects

Source: article PMC12603041, “A neuroprotective tetrapeptide for treatment of acute traumatic brain injury” (EMBO Molecular Medicine, 2025)
